In series [1] the test system is IL-6 production in TNF-α + IFN-γ-treated HaCaT cells. Put plainly: IL-6 production in TNF-α + IFN-γ-treated HaCaT cells (ELISA). Conditions: for IL-6 production: HaCaT cells pre-treated 3 h, then TNF-α + IFN-γ 24 h, result in words; for IC50: HaCaT cells pre-incubated with compound 3 h, then TNF-α + IFN-γ (20 ng/mL) 24 h, ELISA. The class given is cell-based, human. The text has this: The skin consists of two basic layers: the epidermis and dermis. The epidermis is mainly composed of keratinocytes. Pro-inflammatory cytokines are known to play an important role in the immune response in keratinocytes. Previous studies have reported the roles of TNF-α and IFN-γ in inducing NF-κB activation, which upregulates the production of IL-6 and IL-8 [25]. […] Accordingly, the effect of the 16 compounds from C. tricuspidata on IL-6 production in TNF-α + IFN-γ-treated HaCaT cells were determined. Briefly, HaCaT cells were pre-incubated with different concentrations of the 16 compounds for 3 h, and then stimulated with TNF-α + IFN-γ for 24 h.
(§1) The cytokines and chemokines in IL-6, IL-8, CCL17 (TARC), and CCL5 (RANTES) HaCaT cells were detected using an enzyme-linked immunosorbent assay. The levels of these cytokines and chemokines were measured using commercial ELISA kits (BioLegend, San Diego, CA, USA), according to the manufacturer’s instructions.
Figure S2. Effects of the 16 compounds from C. tricuspidata on IL-6 production in TNF-α+IFN-γ-treated HaCaT cells (A, B, and C). Cells were pre-treated with the indicated concentrations of the 16 compounds from C. tricuspidata for 3 h and then stimulated with TNF-α+IFN-γ (20 ng/mL) for 24 h. IL-6 levels were determined as described in the Materials and Methods section. The results are presented as the mean ± standard deviation of three experiments. *p < 0.05, **p < 0.01, and ***p < 0.001 compared with TNF-

Series [2] deals with IL-8 production in TNF-α + IFN-γ-treated HaCaT cells. Put plainly: IL-8 production in TNF-α + IFN-γ-treated HaCaT cells (ELISA). It counts as cell-based, human. Conditions: for IL-8 production: HaCaT cells pre-treated 3 h, then TNF-α + IFN-γ 24 h, result in words; for IC50: HaCaT cells pre-incubated with compound 3 h, then TNF-α + IFN-γ (20 ng/mL) 24 h, ELISA. The method, then: Next, the effect of the 16 compounds from C. tricuspidata on IL-8 production in HaCaT cells were determined. Briefly, HaCaT cells were pre-incubated with different concentrations of the 16 compounds for 3 h. Thereafter, the cells were subjected to TNF-α + IFN-γ stimulation for 24 h. […] Compound 2, with its flavanone skeletons, has been studied for its cyclooxygenase and tyrosinase inhibitory effects. In a previous study, compound 2 altered the anti-neuroinflammatory response in microglia. Compound 6, a prenylated flavanone, has been reported to have apoptotic effects on A375.S2 melanoma cells and to lead to the induction of apoptotic cell death in KM12, Caco-2, HT29, HCC2998, HCT116, and SW48 cell lines. […] This is the first report on the biological action of compounds 2, 6, 12, 13, 4, and 14 on the inhibitory effects of skin inflammatory factors in skin HaCaT cells. Therefore, further mechanism studies of these six compounds in HaCaT cells were conducted.
as §1
Figure S3. Effects of the 16 compounds from C. tricuspidata on IL-8 (A, B, and C) production in TNF-α+IFN-γ-treated HaCaT cells. The cells were pre-treated with the indicated concentrations of the C. tricuspidata compounds for 3 h, and then stimulated with TNF-α+IFN-γ (20 ng/mL) for 24 h. […] levels were determined as described in the Materials and Methods section. Data are expressed as the mean ± standard deviation of three experiments. *p < 0.05, **p < 0.01, and ***p < 0.001 compared with TNF- […]
(1 picture or pasted object on this page, not shown here)

The subject of series [3] is HaCaT cells. Put plainly: Cell Counting Kit (CCK)-8 cell viability / cytotoxicity assay. Conditions: CCK-8 assay, 24 h, concentration values that did not result in cytotoxicity.
Experimental: (§6) The cytotoxicity of the 16 compounds was evaluated using a Cell Counting Kit (CCK)-8 assay on HaCaT cells.
(§7) To determine the viability of HaCaT cells, these were maintained at 2 × 10^4 cells/well, treated with the test compounds in the presence or absence of glutamate (5 mM), and cultured for 24 h. Subsequently, a CCK8 assay (Dojindo Laboratories, Kumamoto, Japan) was performed and the cells were incubated for 1 h. The absorbance was then measured at 450 nm.
For series [4], the system named is NF-κB p65 translocation to the nucleus in HaCaT cells. Put plainly: NF-κB p65 translocation to the nucleus in TNF-α + IFN-γ-treated HaCaT cells (Western blotting). The class given is cell-based, human. Conditions: HaCaT cells pretreated 3 h, then TNF-α + IFN-γ (20 ng/mL) 10 min; Western blot. The text has this: (§2) The activation of NF-κB by TNF-α and/or IFN-γ results from high levels of IκB phosphorylation and the degradation of IκB in keratinocytes. NF-κB–mediated inflammation is a significant component of innate immunity and seems to be a final common pathway for the aggravation of the inflammatory response to stimuli in immune diseases of the skin [56]. To determine the potential mechanisms of the inhibition of TNF-α + IFN-γ-induced pro-inflammatory enzyme and the mediator levels by the six compounds from C. tricuspidata, their effects on the phosphorylation and degradation of cytoplasmic IκBα and on p65 translocation to the nucleus were investigated. […] In addition, compounds 13, 4, and 14 inhibited the phosphorylation of IκBα (Figure 5C,D). When HaCaT cells were exposed to TNF-α + IFN-γ, NF-κB p65 translocated from the cytoplasm to the nucleus.
(§3) Figure 5 Effects of the six compounds from C. tricuspidata on the degradation of IκB-α (A,B), the phosphorylation of IκBα (C,D), and the translocation of NF-κB p65 to the nucleus (E,F) in HaCaT cells. Cells were pretreated with the six compounds from C. tricuspidata at the indicated concentrations for 3 h and stimulated with TNF-α + IFN-γ (20 ng/mL) for 10 min. IκBα, p-IκBα, and NF-κB p65 were analyzed using Western blotting, as described in the Materials and Methods section. Representative blots from four independent experiments are presented. The immunoblots were quantified using ImageJ software. The band intensity was normalized to that of actin or anti-proliferating cell nuclear antigen (PCNA). * p < 0.05, ** p < 0.01, *** p < 0.001 compared with TNF-α + IFN-γ only.
(§4) Cells were harvested and pelleted via centrifugation at 200× g for 3 min, washed with PBS, and lysed in 20 mM Tris-HCl buffer (pH 7.4) containing a protease inhibitor mixture (0.1 mM phenylmethanesulfonyl fluoride, 5 mg/mL aprotinin, 5 mg/mL pepstatin A, and 1 mg/mL chymostatin). The protein concentration was determined using a protein assay dye reagent concentrate (#5000006; Bio-Rad Laboratories, Hercules, CA, USA). A total of 30 micrograms of protein from each sample was resolved using 7.5% and 12% sodium dodecyl sulfate-polyacrylamide gel electrophoresis. Thereafter, the proteins were electrophoretically transferred onto Hybond enhanced chemiluminescence (ECL) nitrocellulose membranes (Bio-Rad Laboratories). The membranes were blocked with 5% skimmed milk, and sequentially incubated with the relevant primary antibody and horseradish peroxidase-conjugated secondary antibody, prior to ECL detection (Pierce Biotechnology, Rockford, IL, USA).
(§5) HaCaT cells were homogenized in PER-Mammalian Protein Extraction Buffer (1:20, w:v) (Pierce Biotechnology, Rockford, IL, USA) containing freshly added protease inhibitor cocktail I (EMD Biosciences, San Diego, CA, USA) and 1 mM phenylmethanesulfonyl fluoride. The cytosolic fractions were prepared using centrifugation at 16,000× g for 5 min at 4 °C, while the nuclear and cytoplasmic cell extracts were prepared using NE-PER nuclear and cytoplasmic extraction reagents, respectively (Pierce Biotechnology, Rockford, IL, USA).

For series [5], the system named is IκBα degradation in HaCaT cells. Put plainly: Degradation of cytoplasmic IκBα in TNF-α + IFN-γ-treated HaCaT cells (Western blotting). As to conditions: HaCaT cells pretreated 3 h, then TNF-α + IFN-γ (20 ng/mL) 10 min; Western blot. The class given is cell-based, human.
Excerpt: as §2, §3, §4, §5

Series [6] concerns HaCaT cells.
Experimental: as §6, §7

Where two headings read alike, the source gives them in different places.

As for `O=C1c2c(O)cc(O)cc2O[C@H](c2ccc(O)cc2)[C@H]1O` [Compound 1, dihydrokaempferol], the IL-6 production result in series [1] was “significantly decreased”. The IC50 in series [1] (Homo sapiens) and in series [2] (Homo sapiens) was greater than 80 µM throughout. In addition, in series [2], the IL-8 production entry was “decreased”. Further, the Cytotoxicity in the series with HaCaT cells [3] was greater than 80 µM.
Take `O=C1CC(c2ccc(O)cc2O)Oc2cc(O)cc(O)c21` (stereo not drawn) [Compound 2, steppogenin]: in series [1], the IL-6 production entry is reported as “significantly decreased”. Also, the values for the half-maximal inhibitory concentration (IC50) in series [1] (Homo sapiens) and in series [2] (Homo sapiens) were greater than 80 µM and 62.2 ± 16.5 µM, respectively. Besides, the IL-8 production result in series [2] is given as “decreased”. Besides, the “NF-κB p65 translocation to the nucleus” value in series [4] was “significantly inhibited”. Moreover, the Cytotoxicity in the series on HaCaT cells [3] was greater than 80 µM.
As to `CC(C)=CCc1cc([C@H]2Oc3cc(O)c(CC=C(C)C)c(O)c3C(=O)C2O)c(O)cc1O` (stereo partly drawn) [Compound 3, cudraflavanone D], the IL-6 production result in series [1] is recorded as “significantly decreased”. Also, the IC50 in series [1] (Homo sapiens) was greater than 10 µM; in series [2] (Homo sapiens) it was 4.2 ± 1.03 µM. Moreover, the IL-8 production entry in series [2] is listed as “decreased”. For the same compound, the Cytotoxicity in the series with HaCaT cells [3] was greater than 10 µM.
Take `CC(C)=CCc1c(O)cc2c(c1O)C(=O)C[C@@H](c1cc3c(cc1O)OC(C)(C)C=C3)O2` [Compound 5, cudraflavanone A]: the half-inhibitory concentration (IC50) in series [1] (Homo sapiens) and in series [2] (Homo sapiens) was greater than 40 µM throughout. The IL-8 production result in series [2] is recorded as “decreased”. In the series on HaCaT cells [3], this compound had a Cytotoxicity greater than 40 µM.
Consider `CC(C)=CCc1c(-c2ccc(O)cc2O)oc2c(CC=C(C)C)c(O)cc(O)c2c1=O` [Compound 7, kuwanon C], for which the IL-6 production result in series [1] is reported as “significantly decreased”. The IC50 in series [1] (Homo sapiens) is 25.8 ± 5.16 µM; in series [2] (Homo sapiens) it was greater than 40 µM. In addition, the IL-8 production result in series [2] is recorded as “decreased”. For the same compound, the Cytotoxicity in the series with HaCaT cells [3] is greater than 40 µM.
The matching figures for `C=CC(C)(C)c1c(O)cc2oc3c(CC=C(C)C)c(O)c(O)cc3c(=O)c2c1O` [Compound 10, cudraxanthone L]: “significantly decreased”, greater than 2 µM, greater than 2 µM, “decreased” and greater than 2 µM.
Regarding `C=CC(C)(C)c1c(O)cc(O)c2c(=O)c3c(CC=C(C)C)c(O)c(O)cc3oc12` [Compound 11, cudratricusxanthone A], the IC50 in series [1] (Homo sapiens) and in series [2] (Homo sapiens) was greater than 5 µM in each case. In addition, in the series with HaCaT cells [3], the Cytotoxicity is greater than 5 µM.
As for `C=CC(C)(C)c1c(O)c(CC=C(C)C)c2oc3cc(O)c(O)cc3c(=O)c2c1O` [Compound 12, macluraxanthone B], the IL-6 production result in series [1] is on record as “significantly decreased”. The IC50 in series [1] (Homo sapiens) is greater than 5 µM; in series [2] (Homo sapiens), 7.88 ± 3.09 µM. The IL-8 production entry in series [2] is “decreased”. For the same compound, the “degradation of IκBα in the cytoplasm” value in series [5] is “inhibit”. In addition, the “NF-κB p65 translocation to the nucleus” value in series [4] is recorded as “significantly inhibited”. Also, the Cytotoxicity with HaCaT cells [3] is greater than 5 µM.
With `C=CC(C)(C)c1c(OC)c(CC=C(C)C)c2oc3cc(O)c(O)cc3c(=O)c2c1O` [Compound 15, cudracuspixanthone A], the IL-6 production entry in series [1] was “significantly decreased”. The IC50 in series [1] (Homo sapiens) is greater than 2 µM; in series [2] (Homo sapiens), 1.54 ± 0.53 µM. Besides, the IL-8 production result in series [2] is listed as “decreased”. This compound yielded a Cytotoxicity in the series with HaCaT cells [3] greater than 2 µM.
On to `C=CC(C)(C)c1c2c(c3oc4cc(O)c(O)cc4c(=O)c3c1O)C=CC(C)(C)O2` [Compound 16, cudratricusxanthone N], for which the IC50 in series [1] (Homo sapiens) and in series [2] (Homo sapiens) was greater than 2 µM each time. Besides, the IL-8 production entry in series [2] is listed as “decreased”. Also, the Cytotoxicity in the series with HaCaT cells [3] was greater than 2 µM.
With `COc1cc(/C=C/C(=O)CC(=O)/C=C/c2ccc(O)c(OC)c2)ccc1O` [curcumin, reference compound], the results for the concentration for half-maximal inhibition (IC50) in series [1] (Homo sapiens) and in series [2] (Homo sapiens) were 12 ± 3.13 µM and 10.3 ± 2.2 µM, respectively.
As for cudraxanthone D [Compound 9], the IL-8 production entry in series [2] is reported as “decreased”. The compound further displayed a Cytotoxicity with HaCaT cells [6] greater than 5 µM.
Consider cudraxanthone M [Compound 8], for which the concentration for half-maximal inhibition (IC50) in series [1] is greater than 10 µM. For the same compound, in series [2], the IC50 was greater than 10 µM and the IL-8 production result is “decreased”. The compound also registered a Cytotoxicity in the series on HaCaT cells [3] greater than 10 µM.
